According to ChEMBL document CHEMBL3639151, “Inhibitors of bruton's tyrosine kinase” (2014):

Target: Tyrosine-protein kinase BTK (Homo sapiens, UniProt Q06187)
Assay: Inhibition Assay: Plates assayed are 96-well polypropylene (Greiner) and 96-well 1.2 μm hydrophilic PVDF filter plates (Millipore). Concentrations reported here are final assay concentrations: 10-100 μM compounds in DMSO (Burdick and Jackson), 5-10 nM Btk enzyme (His-tagged, full-length), 30 μM peptide substrate (Biotin-Aca-[…]-NH2), 100 μM ATP (Sigma), 8 mM imidazole (Sigma, pH 7.2), 8 mM glycerol-2-phosphate (Sigma), 200 μM EGTA (Roche Diagnostics), 1 mM MnCl2 (Sigma), 20 mM MgCl2 (Sigma), 0.1 mg/ml BSA (Sigma), 2 mM DTT (Sigma), 1 μCi 33P ATP (Amersham), 20% streptavidin sepharose beads (Amersham), 50 mM EDTA (Gibco), 2 M NaCl (Gibco), 2 M NaCl w/1% phosphoric acid (Gibco), microscint-20 (Perkin Elmer).

Chain of Tyrosine-protein kinase BTK (Q06187 whole entry): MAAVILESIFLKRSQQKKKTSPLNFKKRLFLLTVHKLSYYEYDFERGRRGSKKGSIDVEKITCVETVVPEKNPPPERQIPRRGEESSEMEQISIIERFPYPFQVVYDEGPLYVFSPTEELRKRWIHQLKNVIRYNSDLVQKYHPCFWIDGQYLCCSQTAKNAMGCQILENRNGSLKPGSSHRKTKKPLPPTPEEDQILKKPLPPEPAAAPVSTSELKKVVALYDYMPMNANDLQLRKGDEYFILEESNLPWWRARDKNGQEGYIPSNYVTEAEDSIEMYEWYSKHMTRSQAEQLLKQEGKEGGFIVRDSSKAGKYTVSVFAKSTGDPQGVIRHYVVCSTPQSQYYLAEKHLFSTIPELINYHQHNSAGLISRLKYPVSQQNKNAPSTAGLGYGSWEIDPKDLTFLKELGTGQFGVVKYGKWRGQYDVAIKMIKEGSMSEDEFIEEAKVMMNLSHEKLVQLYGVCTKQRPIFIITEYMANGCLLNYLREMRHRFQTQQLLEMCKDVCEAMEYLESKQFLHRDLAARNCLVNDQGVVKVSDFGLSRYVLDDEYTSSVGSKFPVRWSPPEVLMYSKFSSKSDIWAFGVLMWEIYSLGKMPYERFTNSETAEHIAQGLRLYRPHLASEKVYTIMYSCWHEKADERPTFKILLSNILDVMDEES

- IC50: 0.09 nM
SMILES: CC(C)(C)c1cc(F)c2c(=O)n(-c3cccc(-n4cc(C(N)=O)c(Nc5ccc(S(C)(=O)=O)cc5)n4)c3CO)ncc2c1
